Measured values from patent publication US20160000911A1, “COMBINATION THERAPY OF A TYPE II ANTI-CD20 ANTIBODY WITH INCREASED ANTIBODY DEPENDENT CELLULAR CYTOTOXITY (ADCC)” (ROCHE GLYCART AG, priority 2008, published 2016).

Key:
[1] = tested on: WSU-DLCL2 human B-Cell Non-Hodgkin-Lymphoma (NHL); test: Tumor growth inhibition study in vivo, WSU-DLCL2 xenograft (Example 1); set-up: species or system SCID beige mice
Text: Antibody buffer included histidine, trehalose and polysorbate 20.
Cyclophposphamide and vincristine were purchased as clinical formulation from Baxter Oncology GmbH, Halle, Germany or medac, Gesellschaft für klinische Spezialpräparate mbH, Hamburg, Germany, respectively. Dilution was adjusted from reconstituted stock solution.
WSU-DLCL2 human Non-Hodgkin-Lymphoma (NHL) cells were kindly provided from Hoffmann-La Roche, Inc., Nutley, N.J., USA. […] Passage 4 was used for transplantation. Cells were co-injected with Matrigel.
Continuous health monitoring was carried out on regular basis.
Animal treatment started at the day of randomisation 9 days after cell transplantation. […] The corresponding vehicle was administered on the same days. Cyclophosphamide and vincristine were given i.v. once weekly on day 9, 15, 23, 30, 37, 44, 51 and 58 at 25 mg/kg or 0.25 mg/kg, respectively. In the combination therapy groups, both antibodies were administered 24 hours after the chemotherapeutic agents on day 10, 16, 24, 31, 38, 45, 52 and 59.

[2] = target: T1, CD20 on Raji cells (ATCC-No. CCL-86) (Homo sapiens, UniProt P11836); test: Ratio of the binding capacities to CD20 on Raji cells compared to rituximab (direct immunofluorescence, Cy5, FACSArray); settings: MFI at EC50 of Cy5-labeled antibodies, 30 min at 4° C.
T1 construct: generated by direct immunofluorescence using the Burkitt's lymphoma cell line Raji (ATCC-No. CCL-86); host or cells: Raji (Burkitt's lymphoma cell line)
T1 sequence (P11836 1-297): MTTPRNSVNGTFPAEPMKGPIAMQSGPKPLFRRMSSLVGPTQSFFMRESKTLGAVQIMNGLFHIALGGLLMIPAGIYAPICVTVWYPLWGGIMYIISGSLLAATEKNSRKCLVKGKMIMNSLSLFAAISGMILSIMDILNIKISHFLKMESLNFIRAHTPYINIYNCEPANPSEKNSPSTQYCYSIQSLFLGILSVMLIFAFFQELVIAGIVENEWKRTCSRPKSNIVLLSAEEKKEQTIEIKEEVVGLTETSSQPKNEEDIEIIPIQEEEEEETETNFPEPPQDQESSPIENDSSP
Protocol: MFI is the mean fluorescent intensity. The “Cy5-labeling ratio” as used herein means the number of Cy5-label molecules per molecule antibody.
Raji cells (ATCC-No. CCL-86) were maintained in culture in RPMI-1640 medium (PanBiotech GmbH, Cat.-No. PO4-18500) containing 10% FCS (Gibco, Cat.-No. 10500-064). […] 5*10^5 cells per sample were stained for 30 min at 4° C. Afterwards, cells were washed in culture medium. Propidium iodide (PI) staining was used to exclude dead cells.
Then the ratio of the binding capacities to CD20 on Raji cells (ATCC-No. CCL-86) is calculated according to the following formula: […]

binding capacity to CD20 on Raji cells compared to rituximab [2]: reduces binding capacity
Substance: anti-CD20 antibody B-HH6-B-KV1 GE: Type II anti-CD20 antibody; humanized B-Ly1, glycoengineered B-HH6-B-KV1 with increased ADCC (WO 2005/044859, WO 2007/031875)
tumor growth inhibition ([1]; day 35 after cell transplantation, compared to the control group, i.v. once weekly, antibodies 30 mg/kg, cyclophosphamide 25 mg/kg, vincristine 0.25 mg/kg): 85% | Tumor growth delay, T − C value ([1]; median time to reach 1500 mm^3, treatment minus control, until day 64 after cell transplantation): 19 days
